Measurements as given in the supplement of paper PMC13207355.
Values joined by “and” are separate entries in the source; they are usually repeats but may differ in a detail not shown here. Equal entries are not always repeated.

Key:
Settings in all cases: exposure time: 72 h
E57 [1] = patient-derived glioblastoma stem cells of mesenchymal subtype; test: surviving fraction (nuclei count normalised to DMSO); higher = more cells surviving (less toxic)
E21 [2] = patient-derived glioblastoma stem cells of mesenchymal subtype; test: as above
FT3469 [3] = normal neural stem cell line; test: as above
E13 [4] = patient-derived glioblastoma stem cells of classical subtype; test: as above
E34 [5] = patient-derived glioblastoma stem cells of proneural subtype; test: as above
E28 [6] = patient-derived glioblastoma stem cells of classical subtype; test: as above
E31 [7] = patient-derived glioblastoma stem cells of proneural subtype; test: as above
E57 [8] = test: phenotypic distance (Euclidean, principal components) from DMSO controls (arbitrary units); higher = stronger morphological change
E21 [9] = test: as above
FT3469 [10] = test: as above
E13 [11] = test: as above
E34 [12] = test: as above
E28 [13] = test: as above
E31 [14] = test: as above
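Throughout, for phenotypic distance (Euclidean, principal components) from DMSO controls: cell Painting imaging in 384-well plates, CellProfiler features reduced to at least 20 principal components, Euclidean distance versus same-plate DMSO vehicle wells (0.1% v/v), median over six images per well.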
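Throughout, for surviving fraction (nuclei count normalised to DMSO): nuclei counted by high-content imaging of Hoechst-stained cells in laminin-coated 384-well plates, relative to 0.1% DMSO vehicle wells, with staurosporine as cell-death control.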

Cc1ccc(C(=O)N(CCCN)[C@@H](c2oc3cc(Cl)ccc3c(=O)c2Cc2ccccc2)C(C)C)cc1
Settings | phenotypic distance | surviving fraction
E13 [4], 4.1 nM | – | 0.451 and 0.49
E13 [4], 12.3 nM | – | 0.443 and 0.489
E13 [4], 37 nM | – | 0.461 and 0.468
E13 [4], 111.1 nM | – | 0.399 and 0.43
E13 [4], 333.3 nM | – | 0.428 and 0.492
E13 [4], 1000 nM | – | 0.445 and 0.399
E13 [11], 4.1 nM | 3.01 and 2.45 | –
E13 [11], 12.3 nM | 3.35 and 2.7 | –
E13 [11], 37 nM | 2.78 | –
E13 [11], 111.1 nM | 3.42 and 3.07 | –
E13 [11], 333.3 nM | 2.78 and 2.91 | –
E13 [11], 1000 nM | 2.81 and 3.02 | –
E13 [11], 3000 nM | 2.53 and 5.91 | –
E21 [2], 4.1 nM | – | 0.198 and 0.164
E21 [2], 12.3 nM | – | 0.186 and 0.161
E21 [2], 37 nM | – | 0.159 and 0.158
E21 [2], 111.1 nM | – | 0.192 and 0.177
E21 [2], 333.3 nM | – | 0.178 and 0.162
E21 [2], 1000 nM | – | 0.21 and 0.182
E21 [9], 4.1 nM | 6.85 and 5.14 | –
E21 [9], 12.3 nM | 6.99 and 5.4 | –
E21 [9], 37 nM | 7.53 and 5.43 | –
E21 [9], 111.1 nM | 5.98 and 4.77 | –
E21 [9], 333.3 nM | 7.67 and 4.85 | –
E21 [9], 1000 nM | 6.93 and 5.54 | –
E21 [9], 3000 nM | 10.1 and 4.79 | –
E28 [6], 4.1 nM | – | 0.424 and 0.34
E28 [6], 12.3 nM | – | 0.335 and 0.367
E28 [6], 37 nM | – | 0.415 and 0.342
E28 [6], 111.1 nM | – | 0.346 and 0.352
E28 [6], 333.3 nM | – | 0.428 and 0.43
E28 [6], 1000 nM | – | 0.328 and 0.336
E28 [13], 4.1 nM | 3.6 and 2.9 | –
E28 [13], 12.3 nM | 3.5 and 3.14 | –
E28 [13], 37 nM | 3.73 and 3.19 | –
E28 [13], 111.1 nM | 3.42 and 3.15 | –
E28 [13], 333.3 nM | 3.17 and 2.59 | –
E28 [13], 1000 nM | 3.49 and 3.39 | –
E31 [7], 4.1 nM | – | 0.165
E31 [7], 12.3 nM | – | 0.184
E31 [7], 37 nM | – | 0.189
E31 [7], 111.1 nM | – | 0.126
E31 [7], 333.3 nM | – | 0.171
E31 [7], 1000 nM | – | 0.174
E31 [7], 3000 nM | – | 0.00446
E31 [14], 4.1 nM | 4.81 | –
E31 [14], 12.3 nM | 3.13 | –
E31 [14], 37 nM | 3.36 | –
E31 [14], 111.1 nM | 3.73 | –
E31 [14], 333.3 nM | 4.39 | –
E31 [14], 1000 nM | 3.79 | –
E31 [14], 3000 nM | 11.9 | –
E34 [5], 4.1 nM | – | 0.598 and 0.534
E34 [5], 12.3 nM | – | 0.575 and 0.607
E34 [5], 37 nM | – | 0.606 and 0.576
E34 [5], 111.1 nM | – | 0.429 and 0.564
E34 [5], 333.3 nM | – | 0.575 and 0.595
E34 [5], 1000 nM | – | 0.549 and 0.594
E34 [12], 4.1 nM | 2.72 and 1.93 | –
E34 [12], 12.3 nM | 2.65 and 1.73 | –
E34 [12], 37 nM | 2.52 and 2.06 | –
E34 [12], 111.1 nM | 2.4 and 1.93 | –
E34 [12], 333.3 nM | 2.3 and 2.24 | –
E34 [12], 1000 nM | 2.35 and 1.99 | –
E57 [1], 4.1 nM | – | 0.0969 and 0.0961
E57 [1], 12.3 nM | – | 0.0867 and 0.0693
E57 [1], 37 nM | – | 0.0872 and 0.0935
E57 [1], 111.1 nM | – | 0.101 and 0.085
E57 [1], 333.3 nM | – | 0.0996 and 0.117
E57 [1], 1000 nM | – | 0.119 and 0.0974
E57 [8], 4.1 nM | 8.08 and 4.22 | –
E57 [8], 12.3 nM | 4.11 and 7.9 | –
E57 [8], 37 nM | 4.48 and 8.38 | –
E57 [8], 111.1 nM | 4.53 and 7.47 | –
E57 [8], 333.3 nM | 4.17 and 7.46 | –
E57 [8], 1000 nM | 4.05 and 7.38 | –
E57 [8], 3000 nM | 3.9 and 9.85 | –
FT3469 [3], 4.1 nM | – | 0.493 and 0.523
FT3469 [3], 12.3 nM | – | 0.562 and 0.558
FT3469 [3], 37 nM | – | 0.606 and 0.566
FT3469 [3], 111.1 nM | – | 0.534 and 0.565
FT3469 [3], 333.3 nM | – | 0.489 and 0.597
FT3469 [3], 1000 nM | – | 0.556 and 0.549
FT3469 [10], 4.1 nM | 2.95 and 2.85 | –
FT3469 [10], 12.3 nM | 2.63 and 2.23 | –
FT3469 [10], 37 nM | 2.78 and 2.25 | –
FT3469 [10], 111.1 nM | 3.02 and 2.28 | –
FT3469 [10], 333.3 nM | 3.08 and 2.17 | –
FT3469 [10], 1000 nM | 2.54 and 2.94 | –

N=C(NCCCCCCNC(=N)NC(=N)Nc1ccc(Cl)cc1)NC(=N)Nc1ccc(Cl)cc1 [Chlorhexidine]
Settings | phenotypic distance | surviving fraction
E13 [4], 4.1 nM | – | 1.03
E13 [4], 12.3 nM | – | 1.05
E13 [4], 37 nM | – | 0.948
E13 [4], 111.1 nM | – | 1.01
E13 [4], 333.3 nM | – | 0.969
E13 [4], 1000 nM | – | 0.943
E13 [4], 3000 nM | – | 0.409
E13 [11], 4.1 nM | 0.429 | –
E13 [11], 12.3 nM | 1.39 | –
E13 [11], 37 nM | 0.262 | –
E13 [11], 111.1 nM | 2.5 | –
E13 [11], 333.3 nM | 0.491 | –
E13 [11], 1000 nM | 0.464 | –
E13 [11], 3000 nM | 3.49 | –
E21 [2], 4.1 nM | – | 0.973
E21 [2], 12.3 nM | – | 1.01
E21 [2], 37 nM | – | 0.964
E21 [2], 111.1 nM | – | 0.946
E21 [2], 333.3 nM | – | 0.941
E21 [2], 1000 nM | – | 0.899
E21 [2], 3000 nM | – | 0.259
E21 [9], 4.1 nM | 0.562 | –
E21 [9], 12.3 nM | 0.828 | –
E21 [9], 37 nM | 0.696 | –
E21 [9], 111.1 nM | 0.95 | –
E21 [9], 333.3 nM | 0.783 | –
E21 [9], 1000 nM | 0.943 | –
E21 [9], 3000 nM | 6.35 | –
E28 [6], 4.1 nM | – | 1.05
E28 [6], 12.3 nM | – | 1.13
E28 [6], 37 nM | – | 1.1
E28 [6], 111.1 nM | – | 1.16
E28 [6], 333.3 nM | – | 1.11
E28 [6], 1000 nM | – | 0.694
E28 [6], 3000 nM | – | 0.289
E28 [13], 4.1 nM | 0.971 | –
E28 [13], 12.3 nM | 0.644 | –
E28 [13], 37 nM | 0.865 | –
E28 [13], 111.1 nM | 0.807 | –
E28 [13], 333.3 nM | 0.749 | –
E28 [13], 1000 nM | 1.41 | –
E28 [13], 3000 nM | 3.14 | –
E31 [7], 4.1 nM | – | 0.921
E31 [7], 12.3 nM | – | 0.969
E31 [7], 37 nM | – | 1.07
E31 [7], 111.1 nM | – | 1.04
E31 [7], 333.3 nM | – | 0.889
E31 [7], 1000 nM | – | 0.765
E31 [7], 3000 nM | – | 0.401
E31 [14], 4.1 nM | 0.524 | –
E31 [14], 12.3 nM | 0.525 | –
E31 [14], 37 nM | 0.809 | –
E31 [14], 111.1 nM | 0.944 | –
E31 [14], 333.3 nM | 1.22 | –
E31 [14], 1000 nM | 2.29 | –
E31 [14], 3000 nM | 2.76 | –
E34 [5], 4.1 nM | – | 0.914
E34 [5], 12.3 nM | – | 0.993
E34 [5], 37 nM | – | 0.955
E34 [5], 111.1 nM | – | 0.752
E34 [5], 333.3 nM | – | 1.03
E34 [5], 1000 nM | – | 0.892
E34 [5], 3000 nM | – | 0.659
E34 [12], 4.1 nM | 0.526 | –
E34 [12], 12.3 nM | 0.799 | –
E34 [12], 37 nM | 0.756 | –
E34 [12], 111.1 nM | 0.826 | –
E34 [12], 333.3 nM | 0.445 | –
E34 [12], 1000 nM | 0.747 | –
E34 [12], 3000 nM | 3.01 | –
E57 [1], 4.1 nM | – | 0.972
E57 [1], 12.3 nM | – | 1.03
E57 [1], 37 nM | – | 0.962
E57 [1], 111.1 nM | – | 1.03
E57 [1], 333.3 nM | – | 0.967
E57 [1], 1000 nM | – | 0.838
E57 [1], 3000 nM | – | 0.307
E57 [8], 4.1 nM | 0.332 | –
E57 [8], 12.3 nM | 0.353 | –
E57 [8], 37 nM | 0.497 | –
E57 [8], 111.1 nM | 0.85 | –
E57 [8], 333.3 nM | 0.64 | –
E57 [8], 1000 nM | 1.98 | –
E57 [8], 3000 nM | 4.85 | –
FT3469 [3], 4.1 nM | – | 1.05
FT3469 [3], 12.3 nM | – | 0.955
FT3469 [3], 37 nM | – | 1.1
FT3469 [3], 111.1 nM | – | 0.981
FT3469 [3], 333.3 nM | – | 0.883
FT3469 [3], 1000 nM | – | 0.806
FT3469 [3], 3000 nM | – | 0.537
FT3469 [10], 4.1 nM | 1.53 | –
FT3469 [10], 12.3 nM | 0.951 | –
FT3469 [10], 37 nM | 0.654 | –
FT3469 [10], 111.1 nM | 0.806 | –
FT3469 [10], 333.3 nM | 0.554 | –
FT3469 [10], 1000 nM | 1.03 | –
FT3469 [10], 3000 nM | 2.68 | –
